# From article PMC11672294, “The Antipsychotic Drug Aripiprazole Suppresses Colorectal Cancer by Targeting LAMP2a to Induce RNH1/miR‐99a/mTOR‐Mediated Autophagy and Apoptosis” (Advanced Science, 2024)
# Counter-ions that a name gives are not always drawn.
# Test system: HT29
# Conditions: 72 h, relative to DMSO, 10 µM, Relative cell viability (%)
# In short: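 HT29 viability used WST-1 reduction (2 h, 37 °C, A450) after 72 h of treatment; screening compounds were tested singly at 10 µM, with dimethyl sulfoxide as the comparison.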
row,Structure (SMILES),Relative cell viability (%)
1,COc1ccc2nc([S@@+]([O-])Cc3ncc(C)c(OC)c3C)[nH]c2c1 [Esomeprazole Magnesium],80.51%
2,COc1ccc2nc([S@@+]([O-])Cc3ncc(C)c(OC)c3C)[nH]c2c1 [Esomeprazole Sodium],105.5%
3,COc1cc(Nc2ncc(F)c(Nc3ccc4c(n3)N(COP(=O)(O)O)C(=O)C(C)(C)O4)n2)cc(OC)c1OC [Fostamatinib (R788)],28.64%

# Same assay, conditions: 72 h, relative to DMSO; 10 µM
row,Structure (SMILES),Relative cell viability (%)
1,CCOc1ccc2nc3cc(N)ccc3c(N)c2c1 [Ethacridine lactate monohydrate],39.39%
2,CCc1cc(C(N)=S)ccn1 [Ethionamide],62.71%
3,CCc1cccc2c3c([nH]c12)C(CC)(CC(=O)O)OCC3 (stereo not shown) [Etodolac],86.76%
4,CCOC(=O)c1cncn1[C@H](C)c1ccccc1 [Etomidate],60.28%
5,COc1cc([C@@H]2c3cc4c(cc3[C@@H](O[C@@H]3O[C@@H]5CO[C@@H](C)O[C@H]5[C@H](O)[C@H]3O)[C@H]3COC(=O)[C@H]23)OCO4)cc(OC)c1O [Etoposide],117.9%
6,Cc1cc(C)c2c(c1)[C@@H](N(Cc1cc(C(F)(F)F)cc(C(F)(F)F)c1)c1nnn(C)n1)CCCN2C[C@H]1CC[C@H](C(=O)O)CC1 [Evacetrapib (LY2484595)],40.29%
7,O=c1[nH]c(=O)n(C2CCCO2)cc1F (stereo not shown) [FT-207 (NSC 148958)],74.3%
8,NC(N)=Nc1nc(CSCCC(N)=NS(N)(=O)=O)cs1 [Famotidine],119.6%
9,NC(=O)OCC(COC(N)=O)c1ccccc1 [Felbamate],69.63%
10,CCOC(=O)C1=C(C)NC(C)=C(C(=O)OC)C1c1cccc(Cl)c1Cl (stereo not shown) [Felodipine],60.17%
11,CC(C)OC(=O)C(C)(C)Oc1ccc(C(=O)c2ccc(Cl)cc2)cc1 [Fenofibrate],74.15%
12,CC(C(=O)O)c1cccc(Oc2ccccc2)c1 (stereo not shown) [Fenoprofen Calcium],99.58%
13,Clc1ccc(C(Cn2ccnc2)OCc2ccc(Sc3ccccc3)cc2)c(Cl)c1 (stereo not shown) [Fenticonazole Nitrate],58.4%
14,CC(C)C(=O)Oc1ccc(CO)cc1[C@H](CCN(C(C)C)C(C)C)c1ccccc1 [Fesoterodine Fumarate],112.6%
15,CCCCCCCCc1ccc(CCC(N)(CO)CO)cc1 [Fingolimod (FTY720) HCl],0%
16,CN1CC[C@H](c2c(O)cc(O)c3c(=O)cc(-c4ccccc4Cl)oc23)[C@H](O)C1 [Flavopiridol (Alvocidib)],8.879%
17,CS(=O)(=O)c1ccc([C@@H](O)[C@@H](CF)NC(=O)C(Cl)Cl)cc1 [Florfenicol],85.76%
18,O=c1[nH]c(=O)n([C@H]2C[C@H](O)[C@@H](CO)O2)cc1F [Floxuridine],44.7%
19,COC(=O)Nc1nc2cc(C(=O)c3ccc(F)cc3)ccc2[nH]1 [Flubendazole],16.95%
20,OC(Cn1cncn1)(Cn1cncn1)c1ccc(F)cc1F [Fluconazole],66.51%
21,Nc1nc(F)nc2c1ncn2[C@@H]1O[C@H](COP(=O)(O)O)[C@@H](O)[C@@H]1O [Fludarabine Phosphate],52.49%
22,O=C(O)c1ccccc1Nc1cccc(C(F)(F)F)c1 [Flufenamic acid],80.303%

row,Structure (SMILES),Relative cell viability (%)
1,CCOC(=O)c1ncn2c1CN(C)C(=O)c1cc(F)ccc1-2 [Flumazenil],80.53%
2,Fc1ccc(C(c2ccc(F)cc2)N2CCN(C/C=C/c3ccccc3)CC2)cc1 [Flunarizine 2HCl],73.29%
3,Cc1c(Nc2ncccc2C(=O)O)cccc1C(F)(F)F [Flunixin Meglumin],128.5%
4,CC(=O)OCC(=O)[C@@]12OC(C)(C)O[C@@H]1C[C@H]1[C@@H]3C[C@H](F)C4=CC(=O)C=C[C@]4(C)[C@@]3(F)[C@@H](O)C[C@@]12C [Fluocinonide],56.31%
5,CC(=O)O[C@]1(C(C)=O)CC[C@H]2[C@@H]3C[C@H](C)C4=CC(=O)C=C[C@]4(C)[C@@]3(F)[C@@H](O)C[C@@]21C [Fluorometholone Acetate],86.67%
6,CNCCC(Oc1ccc(C(F)(F)F)cc1)c1ccccc1 (stereo not shown) [Fluoxetine HCl],86.76%
7,CC(C)C(=O)Nc1ccc([N+](=O)[O-])c(C(F)(F)F)c1 [Flutamide],100.9%
8,CCC(=O)O[C@]1(C(=O)SCF)[C@H](C)C[C@H]2[C@@H]3C[C@H](F)C4=CC(=O)C=C[C@]4(C)[C@@]3(F)[C@@H](O)C[C@@]21C [Fluticasone propionate],173.6%
9,COCCCC/C(=N\OCCN)c1ccc(C(F)(F)F)cc1 [Fluvoxamine maleate],72.74%
10,C[C@]12CCC(=O)C(O)=C1CC[C@@H]1[C@@H]2CC[C@]2(C)C(=O)CC[C@@H]12 [Formestane],110.8%
11,C[C@@H](O[C@H]1OCCN(Cc2nc(O)n(P(=O)(O)O)n2)[C@H]1c1ccc(F)cc1)c1cc(C(F)(F)F)cc(C(F)(F)F)c1 [Fosaprepitant dimeglumine salt],111.6%
12,O=C1OC(CN2CCOCC2)CN1/N=C/c1ccc([N+](=O)[O-])o1 (stereo not shown) [Furaltadone HCl],75.76%
13,c1cn2cc(-c3ccc4cn[nH]c4c3)nc(Nc3ccc(N4CCOCC4)cc3)c2n1 [GS-9973],116.2%
14,COc1ncc(-c2ccc3nccc(-c4ccnnc4)c3c2)cc1NS(=O)(=O)c1ccc(F)cc1F [GSK2126458 (GSK458)],12.62%
15,CCOC(=O)c1ccc(OC(=O)CCCCCNC(=N)N)cc1 [Gabexate Mesylate],124.4%
16,C[C@]12CC[C@H](O)CC1=CC[C@@H]1[C@@H]2CC[C@]2(C)C(n3cnc4ccccc43)=CC[C@@H]12 [Galeterone],25.73%
17,Nc1nc(O)c2ncn(COC(CO)CO)c2n1 [Ganciclovir],103.4%
18,COc1c(N2CCNC(C)C2)c(F)cc2c(=O)c(C(=O)O)cn(C3CC3)c12 (stereo not shown) [Gatifloxacin],96.11%
19,O=c1c(-c2ccc(O)cc2)coc2cc(O)cc(O)c12 [Genistein],102.3%
20,C#C[C@]1(O)C=C[C@H]2[C@@H]3CCC4=CC(=O)CC[C@@H]4[C@H]3CC[C@@]21CC [Gestodene],69.63%
21,Oc1cc(O)c(Cl)cn1 [Gimeracil],117.6%
22,CCC1=C(C)CN(C(=O)NCCc2ccc(S(=O)(=O)NC(=O)N[C@H]3CC[C@H](C)CC3)cc2)C1=O [Glimepiride],64.95%

row,Structure (SMILES),Relative cell viability (%)
1,COc1ccccc1OCC(O)CO (stereo not shown) [Guaifenesin],74.15%
2,N=C(N)NC(=O)Cc1c(Cl)cccc1Cl [Guanfacine Hydrochloride],129.1%
3,O=C(CCCN1CCC(O)(c2ccc(Cl)cc2)CC1)c1ccc(F)cc1 [Haloperidol],29.34%
4,NC(=O)NO [Hydroxyurea],70.34%
5,C[C@H](Nc1ncnc2[nH]cnc12)c1cc2cccc(Cl)c2c(=O)n1-c1ccccc1 [IPI-145 (INK1197)],79.06%
6,C=CC(=O)N1CCC[C@@H](n2nc(-c3ccc(Oc4ccccc4)cc3)c3c(N)ncnc32)C1 [Ibrutinib (PCI-32765)],53.4%
7,CCCCCCCN(CC)CCCC(O)c1ccc(NS(C)(=O)=O)cc1 (stereo not shown) [Ibutilide Fumarate],112%
8,COc1cc(C(=O)O)ccc1NC(=O)[C@@H]1N[C@@H](CC(C)(C)C)[C@](C#N)(c2ccc(Cl)cc2F)[C@H]1c1cccc(Cl)c1F [Idasanutlin (RG-7388)],98.29%
9,COC1=C(OC)C(=O)C(CCCCCCCCCCO)=C(C)C1=O [Idebenone],41.75%
10,O=c1[nH]c(=O)n([C@H]2C[C@H](O)[C@@H](CO)O2)cc1I [Idoxuridine],86.86%
11,O=P1(NCCCl)OCCCN1CCCl (stereo not shown) [Ifosfamide],92.99%
12,"CNC(=O)[C@H](Cc1c[nH]c2ccccc12)NC(=O)[C@@H](CC(=O)NO)CC(C)C [Ilomastat (GM6001, Galardin)]",95.73%
13,CCOC(=O)[C@H](CCc1ccccc1)N[C@@H](C)C(=O)N1C(=O)N(C)C[C@H]1C(=O)O [Imidapril HCl],128.5%
14,CC1Cc2ccccc2N1NC(=O)c1ccc(Cl)c(S(N)(=O)=O)c1 (stereo not shown) [Indapamide],71.61%
15,CCc1c2c(nc3ccc(OC(=O)N4CCC(N5CCCCC5)CC4)cc13)-c1cc3c(c(=O)n1C2)COC(=O)[C@]3(O)CC [Irinotecan HCl Trihydrate],113.8%
16,Nc1nc(N)nc(-c2cc(Cl)ccc2Cl)n1 [Irsogladine],176.5%
17,NNC(=O)c1ccncc1 [Isoniazid],140.3%
18,O[C@@H]1CO[C@H]2[C@@H]1OC[C@@H]2O [Isosorbide],83.94%
19,CC1=C(/C=C/C(C)=C/C=C/C(C)=C\C(=O)O)C(C)(C)CCC1 [Isotretinoin],60.28%
20,COc1cc2c(cc1OC)CC(=O)N(CCCN(C)C[C@H]1Cc3cc(OC)c(OC)cc31)CC2 [Ivabradine HCl],110.8%
21,O=C(/C=C\n1cnc(-c2cc(C(F)(F)F)cc(C(F)(F)F)c2)n1)NNc1cnccn1 [KPT-330],44.44%

# Same assay, conditions: ht29 cells, 72 h, 10 µM
row,Structure (SMILES),Relative cell viability (%)
1,CCc1c(Cl)c(O)c(Cl)c(O)c1C(=O)O[C@H]1[C@H](O)[C@H](OC)[C@H](OC/C2=C\C=C\C[C@H](O)/C(C)=C/[C@H](CC)[C@@H](O[C@@H]3OC(C)(C)[C@@H](OC(=O)C(C)C)[C@H](O)[C@@H]3O)/C(C)=C/C(C)=C/C[C@@H]([C@@H](C)O)OC2=O)O[C@@H]1C [Fidaxomicin],94.85%
2,O=C(Nc1nc2cccc(-c3ccc(CN4CCS(=O)(=O)CC4)cc3)n2n1)C1CC1 [Filgotinib (GLPG0634)],50.85%
